PubChem BioAssay (NCI)
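Test compounds were applied to cells in 96-well plates for 48 hours at 5 doses. At the TGI there is no net growth.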

Columns and labels:
Test in all cases: NCI tumour cell line growth inhibition, 48 h
RXF-631 renal = test system: RXF-631 renal
LXFL 529 NSCLC = test system: LXFL 529 NSCLC
DMS 273 small cell lung = test system: DMS 273 small cell lung
KM20L2 colon = test system: KM20L2 colon
DMS 114 small cell lung = test system: DMS 114 small cell lung
XF 498 CNS = test system: XF 498 CNS
HOP-18 NSCLC = test system: HOP-18 NSCLC
SN12K1 renal = test system: SN12K1 renal
P388 leukemia = test system: P388 leukemia
P388/ADR leukemia = test system: P388/ADR leukemia

SMILES	TGI (RXF-631 renal)	TGI (LXFL 529 NSCLC)	TGI (DMS 273 small cell lung)	TGI (KM20L2 colon)	TGI (DMS 114 small cell lung)	TGI (XF 498 CNS)	TGI (HOP-18 NSCLC)	TGI (SN12K1 renal)	TGI (P388 leukemia)	TGI (P388/ADR leukemia)
COc1ccc2nc3c(c(NCCCN(C)C)c2c1)CCCC3	28.7 µM	28.7 µM	24.8 µM	22.4 µM	28.5 µM	20.4 µM				
O=C1Nc2cc([N+](=O)[O-])c(Br)cc2C1=O	33.2 µM		37.3 µM	31.7 µM	33.5 µM	24.6 µM				
CCOC(=O)c1cc2c(OCc3ccccc3)c(OC)cc3c2c(n1)N(c1ccc(OC)cc1)C(C)C3 (stereo not drawn)		> 50 µM	> 50 µM	> 50 µM	> 50 µM	> 50 µM	> 50 µM			
O=NN(CCF)C(=O)NC1CC2CCC1C2 (stereo not drawn)			> 100 µM	> 100 µM	> 100 µM		> 100 µM	> 100 µM	50.3 µM	> 100 µM
Cc1cn(C2CC(CCCO)C(CO)O2)c(=O)[nH]c1=O (stereo not drawn)		> 100 µM	> 100 µM	> 100 µM	> 100 µM	> 100 µM				
CCC(COC(=O)CC[C@@H](NC(=O)C(C)NC(=O)C(C)OC1C(O)C(CO)OC(OCc2ccccc2)C1NC(C)=O)C(N)=O)NC1c2ccccc2Nc2cccc([N+](=O)[O-])c21 (stereo partly drawn)		> 100 µM	> 100 µM	> 100 µM	> 100 µM	> 100 µM	> 100 µM			
CCOC(=O)CCC1(C(=O)OCC)CCCC1=O (stereo not drawn)	> 100 µM	> 100 µM	> 100 µM	> 100 µM	> 100 µM	> 100 µM	> 100 µM			
COc1cc(C2C(Cl)C(=O)N2NC(=O)c2ccc(NC(C)=O)cc2)ccc1O (stereo not drawn)		> 100 µM	> 100 µM	> 100 µM	> 100 µM	> 100 µM				
CC1(C)C2CCC3(OCCO3)C1C(O)C2 (stereo not drawn)	> 100 µM	> 100 µM	> 100 µM	> 100 µM		> 100 µM	> 100 µM			
COC(=O)CC(C(C(=O)OCc1ccccc1)C(C)O)N1C(=O)OC(c2ccccc2)C1c1ccccc1 (stereo not drawn)	> 100 µM	> 100 µM	> 100 µM	> 100 µM	> 100 µM	> 100 µM				
CC(=O)NC(CCCCN)C(=O)NCc1ccccc1 (stereo not drawn)		> 100 µM	> 100 µM	> 100 µM	> 100 µM	> 100 µM				
COc1cccc(/C(Cl)=C(\C=O)c2cccc(OC)c2)c1		20.9 µM	28.5 µM	47.8 µM	16.4 µM	27.1 µM	41.9 µM			
CCOC(=O)C(C)Sc1nnc(COc2ccccc2OC)n1-c1ccccc1 (stereo not drawn)		> 100 µM	> 100 µM	> 100 µM	28.1 µM		> 100 µM			
O=c1c2ccccc2nc(-c2ccccc2)n1NC(=S)Nc1ccc(Cl)cc1		> 100 µM	> 100 µM		> 100 µM		> 100 µM			
Cc1cc(NC(=O)C2C3C=CC(O3)C2C(=O)O)no1 (stereo not drawn)	> 100 µM	46.6 µM	34.2 µM	26.6 µM	29.9 µM	> 100 µM	> 100 µM			
Cc1cccc2c1c1ccc3c(c1n2C)C(=O)C=CC3=O	49.6 µM	4.22 µM	8.3 µM	36.9 µM	21.1 µM		23.9 µM			
Cc1cc(C)nc(/C(=N\NC(N)=O)C(=O)Nc2nc3ccc(C)cc3s2)c1		> 100 µM	> 93.5 µM	> 100 µM	> 81.9 µM	> 100 µM	> 100 µM			
